From patent US8293786B2 (Alltranz Inc., priority 2007, dated 2012)

Tests used:
human abdominal skin = assay: In vitro human skin permeation and skin disposition, flow-through diffusion cells (Example 1); type: in vitro ADME
Description: Flow through diffusion cells were used for the permeation studies. HEPES-buffered Hanks' balanced salts containing 40% (polyethylene glycol) PEG 400 with gentamicin was used for the receiver compartment. Donor solution was comprised of either 100% propylene glycol (PG) solution or a rubbed in gel formulation. […] Drug accumulation in the skin after a 24 or 36 h diffusion experiment was determined as μmol/g wet tissue weight.
The skin samples used in the following experiments were obtained from abdominal reduction surgery and dermatomed to a thickness of approximately 200 μm. The skin samples used herein were frozen at −20° C. for less than six months.
1 L of receiver fluid was prepared by measuring 1 L of nanopure water into a graduated cylinder. 90% of the water was added to an Erlenmeyer flask. Hanks' salts (1 bottle) were added to the water along with 5.96 g of HEPES and 0.35 g of sodium bicarbonate. The pH of the solution was adjusted with 1 N sodium hydroxide solution to pH 7.4. The remaining water was added and the receiver fluid was filtered through a 0.2μ filter (Millipore, Billerica, Mass.). 50 mg of gentamicin was added to the filtered receiver fluid and 400 mL of the receiver fluid was removed and replaced with 400 mL of PEG 400.
Two different formulations were used for charging the donor compartment. Drugs were made up in either 100% PG or a gel formulation. For the PG solution, approximately 50-120 mg of the appropriate drug was weighed into a glass silanized culture tube. The gel formulation resulted from the mixing of absolute ethanol, nanopure water, IPM, Carbopol® 980, 0.1 N aqueous sodium hydroxide solution and the respective drug.
Dermatomed skin harvested from abdominoplasty, stored at −20° C., was used for the experiments. A PermeGear flow-through (In-Line, Riegelsville, Pa.) diffusion cell system was used for the skin permeation studies.
Diffusion cells were kept at 32° C. with a circulating water bath. Human epidermal skin was arranged in the diffusion cell with stratum corneum (upper layer of skin) facing the donor compartment. Permeation area of the skin was 0.95 cm^2. Data was collected from a human skin donor with three to four diffusion cells per treatment.
Receiver solution was HEPES-buffered Hanks' balanced salts with gentamicin containing 40% PEG 400 at a pH of 7.4 and flow rate was adjusted to 0.8 mL/h. Each cell was charged with 0.050 mL of the respective drug formulation (donor solution) or with 0.035 mL of gel formulation which was rubbed into the skin for 15 sec with a Teflon coated rod. The formulation was applied to ensure complete coverage. Diffusion cells were covered with a cap for the duration of the study.
Samples were collected into scintillation vials in 3 h increments for either 24 h or 36 h. All the samples were stored at 4° C. until extracted. An aliquot (0.5 mL) of the diffusion sample was placed into a silanized HPLC vial and 0.5 mL of acetonitrile was added to the sample, capped and vortexed.
At the end of the experiment, the skin tissue was removed from the diffusion cell, rinsed with nanopure water, and blotted dry with a paper towel. The skin was tape stripped twice using book tape (Scotch™, 3M, St. Paul, Minn.) to remove drug formulation adhering to the tissue surface. The area of skin in contact with the drug was cut out, chopped up and placed in a pre-weighed scintillation vial. Ten mL of acetonitrile was added to the vial and drug was extracted from the skin by shaking at room temperature overnight. The following day a 0.1 mL aliquot was removed and diluted with an additional 0.9 mL of acetonitrile. The diluted sample was added to the silanized HPLC vial for analysis.
At the end of the experiment, a 0.01 mL aliquot of the PG donor solution was removed and added to a scintillation vial containing 10 mL of acetonitrile. The vials were vortexed and then sonicated for 15 min. An aliquot of 1 mL was removed and transferred into a silanized HPLC vial for analysis.

[1] = Plasma stability of cannabidiol prodrugs (bioconversion to parent drug); type: in vitro ADME; conditions: Table 20, di-prodrug in plasma; for % mono-prodrug at time (h): mono-prodrug formed
Description: An approximated 1 mg/mL stock solution of each prodrug was prepared in 100 μL of ethanol and 900 μL of acetonitrile. Ten (10) μL of stock was spiked into 1 mL of plasma and vortexed. The samples were kept sealed in an amber vial and samples were obtained to analyze for bioconversion to parent drug.

[2] = Table 3, in propylene glycol, prodrug applied
[3] = Table 4, in propylene glycol, prodrug applied
[4] = Table 5, in propylene glycol, prodrug applied

## C=C(C)C1CCC(C)=CC1c1c(OC(=O)OCN(CC)CC)cc(CCCCC)cc1OC(=O)OCN(CC)CC (centres unmarked) [ALL00102]
Human abdominal skin; Example 1
  flux enhancement (in words): No flux enhancement
  form in which the prodrug permeated through the human skin: permeated through the human skin as cannabidiol
  found in the skin disposition (tissue) samples: Both cannabidiol and intact prodrug were found
  intact prodrug in the diffusion samples (receiver samples): No intact prodrug was found
  total cannabidiol in the skin compared to cannabidiol: higher
Human abdominal skin; [2]
  24 h cumulative amt: 8.6 ± 6.3 nmol
  Flux: 0.6 ± 0.5 nmol/cm^2/h
Human abdominal skin; [3]
  24 h cumulative amt: 9.1 ± 5.0 nmol
  Flux: 0.7 ± 0.3 nmol/cm^2/h
  Lag time: 11.0 ± 2.8 h
Human abdominal skin; Table 4, in propylene glycol, prodrug applied, found in skin as CBD
  24 h skin conc: 18.9 ± 9.9 (CBD) μmol/g
Human abdominal skin; Table 4, in propylene glycol, prodrug applied, found in skin as PD (prodrug)
  24 h skin conc: 73.4 ± 35.5 (PD) μmol/g
Human abdominal skin; [4]
  24 h cumulative amt: 13.7 ± 18.6 nmol
  Flux: 0.3 ± 0.1 nmol/cm^2/h
  Lag time: 5.1 ± 0.0 h
Human abdominal skin; Table 5, in propylene glycol, prodrug applied, found in skin as PD (prodrug)
  24 h skin conc: 183.1 ± 62.8 (PD) μmol/g
Human abdominal skin; Table 9, in gel formulation
  24 h cumulative amt: 1.1 ± 0.4 nmol
  Flux: 0.05 ± 0.02 nmol/cm^2/h
  Lag time: 1.6 ± 1.6 h
Human abdominal skin; Table 9, in gel formulation, as applied compound (CBD, or PD = intact prodrug)
  24 h skin conc: 22.9 ± 9.3 (PD) μmol/g
Human abdominal skin; Table 9, in gel formulation, prodrug applied, found in skin as CBD
  24 h skin conc: 0.4 ± 0.3 (CBD) μmol/g
Human abdominal skin; Table 10, in propylene glycol, as applied compound (CBD, or PD = intact prodrug)
  24 h skin conc: 31.3 ± 5.5 (PD) μmol/g

## C=C(C)C1CCC(C)=CC1c1c(OC(=O)COCCOCCOC)cc(CCCCC)cc1OC(=O)COCCOCCOC (centres unmarked) [ALL00141, CBD bis(2-[2-(2-methoxyethoxy)ethoxy]acetate)]
[1]; 2 h
  % mono-prodrug at time (h): 1%
  % Di-prodrug at time (h): 71%
[1]; 20 h
  % mono-prodrug at time (h): 2%
  % Di-prodrug at time (h): 46%
[1]; 0 h
  % Di-prodrug at time (h): 98%

## C=C(C)C1CCC(C)=CC1c1c(OC(=O)NCC)cc(CCCCC)cc1OC(=O)NCC (centres unmarked) [ALL00104]
Human abdominal skin; Example 1
  found in the skin disposition (tissue) samples: Some intact prodrug was found in the skin samples but very little cannabidiol was detected
Human abdominal skin; both the PG donor solution and gel formulation
  permeation through the skin: did not permeate (or were below LOD)
